The results in this text go back to ChEMBL document CHEMBL4382257, “Identification and Profiling of Hydantoins-A Novel Class of Potent Antimycobacterial DprE1 Inhibitors” (J Med Chem, 2018).

A short description of data set [1]: Intrinsic clearance in mouse liver microsomes at 0.5 uM after 30 mins in presence of NADPH by LC-MS/MS analysis. In kind it is ADME, Microsome. The settings on record: 0.5 h. (Liver microsomes are a subcellular fraction often used to study metabolism.)
Data set [2] can be described thus: Intrinsic clearance in human liver microsomes at 0.5 uM after 30 mins in presence of NADPH by LC-MS/MS analysis. In kind it is ADME, Microsome. As to conditions: 0.5 h.
Another data set in a line: physchem. As to conditions: buffer, pH 7.4, logD.
For data set [3] the following is noted: buffer, pH 7.4.

Broadly, the chromatographic logD is a lipophilicity value derived from retention on a column. For orientation: logD means lipophilicity at a set pH, counting ionised and neutral species. A higher logD goes with a more lipophilic compound.

Each structure is given as a SMILES string. Some results are limits rather than exact numbers.

Consider `CC1(c2ccc(N3CCOC3=O)cc2)NC(=O)N(CC(=O)c2ccc(F)cc2F)C1=O` (centres undefined), for which the values for the CLH in data set [1] and in data set [2] were 3.54 mL/min/g and less than 0.4 mL/min/g, respectively. The compound also gave a chromatographic logD in the data set “physchem” of 3.94.
In the same order, the values of `CC1(c2ccc(C#N)cc2)NC(=O)N(CC(=O)c2ccc(F)cc2F)C1=O` (centres undefined) are 3.52 mL/min/g, 0.49 mL/min/g and 4.54.
Taken in the same sequence, the figures for `CC1(c2ccc(S(C)(=O)=O)cc2)NC(=O)N(CC(=O)c2ccc(F)cc2F)C1=O` (centres undefined) were 2.5 mL/min/g, 0.46 mL/min/g and 3.64.
In the same order, the values of `CC1(c2ccc(OC(F)F)cc2)NC(=O)N(CC(=O)c2ccc(F)cc2F)C1=O` (centres undefined) are 1.78 mL/min/g, less than 0.4 mL/min/g and 5.36.
`CC1(c2ccc(NS(C)(=O)=O)cc2)NC(=O)N(CC(=O)c2ccc(F)cc2F)C1=O` (centres undefined): the CLH in data set [1] was 3.29 mL/min/g; in data set [2], 0.47 mL/min/g. In “physchem”, this compound came in with a chromatographic logD of 3.57.
In the same order, the values of `CC1(c2ccc(-n3cnnn3)cc2)NC(=O)N(CC(=O)c2ccc(F)cc2F)C1=O` (centres undefined) are 2.44 mL/min/g, less than 0.4 mL/min/g and 3.78.
Taken in the same sequence, the figures for `CC1(c2ccc(Br)cc2)NC(=O)N(CC(=O)c2ccc(F)cc2F)C1=O` (centres undefined) were 1.48 mL/min/g, less than 0.4 mL/min/g and 5.68.
As for `CC1(c2ccc(C#N)cc2)NC(=O)N(CC(=NO)c2ccc(F)cc2F)C1=O` (stereo in doubt; 43a), the logD in data set [3] was 3.38.
For `CC1(c2ccc(C#N)cc2)NC(=O)N(CC(=NO)c2ccc(F)cc2F)C1=O` (stereo in doubt; 43b), the chromatographic logD in “physchem” amounted to 3.59.
Same read-out and setting: with `COc1ccc(C2(C)CN(CC(=O)c3ccc(F)cc3F)C(=O)N2)cc1` (stereo in doubt; 151a) the figure was 4.72.
